From patent US12215140B2, “Method of stabilizing protein contained in specimen and solution for stabilizing protein contained in specimen” (EIKEN KAGAKU KABUSHIKI KAISHA, priority 2018, dated 2025)

Biological target: hemoglobin (Homo sapiens, UniProt P68871+P69905)
Assay: Stability of hemoglobin in samples preserved at 37° C. in preservation solution containing no haptoglobin, Hb measured by latex agglutination method (Examples 8, 9 and Table 10)
Conditions: arylboronic acid 0.5 mmol/L
Procedure: Preservation solutions were prepared with the addition of 40 mmol/L HEPES (pH 6.8), 0.1% BSA, 0.1% NaN3, and 0 to 2.5 mmol/L phenylboronic acid. […] Samples obtained by adding hemoglobin-added fecal specimens to the preservation solutions so that the fecal concentration would be 0.5% were preserved at 37° C. for 0, 16, 38, and 62 hours. The fecal specimens were added with hemoglobin having an amount such that the hemoglobin concentration in the samples would be about 300 μg/L. Instead of the fecal specimens to which hemoglobin was added, samples containing no fecal specimens, in which hemoglobin was added to the preservation solutions so that the hemoglobin concentration in the samples would be 300 μg/L, were similarly preserved. The hemoglobin (Hb) concentrations (μg/L) in the preserved samples were measured by the latex agglutination method using the same measurement reagent and measurement device as in Example 1.
The concentration of phenylboronic acid in the preservation solutions of Example 8 was fixed to 0.5 mmol/L, preservation solutions to which sorbitol or sucrose was further added at 10 to 250 mmol/L or trehalose, glucose, fructose, or mannitol was further added at 50 to 100 mmol/L were prepared, and testing was conducted in the same manner as in Example 8. In addition, preservation solutions to which the phenylboronic acid was added but no sugar was added were prepared, preservation solutions to which the phenylboronic acid and sugar were not added were prepared for the comparative examples, and testing was conducted in the same manner.
For comparative examples, preservation solutions to which no arylboronic acid was added were prepared, and testing was conducted in the same manner.

[1] = Feces 1, 0 h at 37° C., no sugar
[2] = Feces 1, 16 h at 37° C., no sugar
[3] = Feces 1, 38 h at 37° C., no sugar
[4] = Feces 1, 62 h at 37° C., no sugar
[5] = Feces 2, 0 h at 37° C., no sugar
[6] = Feces 2, 16 h at 37° C., no sugar
[7] = Feces 2, 38 h at 37° C., no sugar
[8] = Feces 2, 62 h at 37° C., no sugar
[9] = Feces 3, 0 h at 37° C., no sugar
[10] = Feces 3, 16 h at 37° C., no sugar
[11] = Feces 3, 38 h at 37° C., no sugar
[12] = Feces 3, 62 h at 37° C., no sugar
[13] = No feces, 0 h at 37° C., no sugar
[14] = No feces, 16 h at 37° C., no sugar
[15] = No feces, 38 h at 37° C., no sugar
[16] = No feces, 62 h at 37° C., no sugar

hemoglobin, sequence (P69905 2-142): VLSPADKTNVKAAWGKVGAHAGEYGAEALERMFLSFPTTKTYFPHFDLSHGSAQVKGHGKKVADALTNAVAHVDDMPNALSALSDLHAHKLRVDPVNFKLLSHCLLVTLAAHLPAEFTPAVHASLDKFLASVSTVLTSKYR
hemoglobin, sequence (P68871 2-147): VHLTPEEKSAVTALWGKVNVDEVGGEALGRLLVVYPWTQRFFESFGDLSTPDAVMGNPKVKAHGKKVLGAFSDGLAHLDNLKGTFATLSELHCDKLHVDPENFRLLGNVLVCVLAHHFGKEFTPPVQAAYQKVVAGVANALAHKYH

O=C(O)c1cccc(B(O)O)c1 [3C-PBA, 3-carboxyphenylboronic acid]
Hb concentration [1]: 296 µg/L
Recovery ratio with respect to Hb after 0 days [1]: 100%
Hb concentration [2]: 163 µg/L
Recovery ratio with respect to Hb after 0 days [2]: 55%
Hb concentration [3]: 68 µg/L
Recovery ratio with respect to Hb after 0 days [3]: 23%
Hb concentration [4]: 20 µg/L
Recovery ratio with respect to Hb after 0 days [4]: 7%
Hb concentration (Feces 1, 0 h at 37° C.): 296 µg/L
Recovery ratio with respect to Hb after 0 days (Feces 1, 0 h at 37° C.): 100%
Hb concentration (Feces 1, 16 h at 37° C.): 163 µg/L
Recovery ratio with respect to Hb after 0 days (Feces 1, 16 h at 37° C.): 55%
Hb concentration (Feces 1, 38 h at 37° C.): 68 µg/L
Recovery ratio with respect to Hb after 0 days (Feces 1, 38 h at 37° C.): 23%
Hb concentration (Feces 1, 62 h at 37° C.): 20 µg/L
Recovery ratio with respect to Hb after 0 days (Feces 1, 62 h at 37° C.): 7%
Hb concentration [5]: 288 µg/L
Recovery ratio with respect to Hb after 0 days [5]: 100%
Hb concentration [6]: 90 µg/L
Recovery ratio with respect to Hb after 0 days [6]: 31%
Hb concentration [7]: 8 µg/L
Recovery ratio with respect to Hb after 0 days [7]: 3%
Hb concentration [8]: 0 µg/L
Recovery ratio with respect to Hb after 0 days [8]: 0%
Hb concentration (Feces 2, 0 h at 37° C.): 288 µg/L
Recovery ratio with respect to Hb after 0 days (Feces 2, 0 h at 37° C.): 100%
Hb concentration (Feces 2, 16 h at 37° C.): 90 µg/L
Recovery ratio with respect to Hb after 0 days (Feces 2, 16 h at 37° C.): 31%
Hb concentration (Feces 2, 38 h at 37° C.): 8 µg/L
Recovery ratio with respect to Hb after 0 days (Feces 2, 38 h at 37° C.): 3%
Hb concentration (Feces 2, 62 h at 37° C.): 0 µg/L
Recovery ratio with respect to Hb after 0 days (Feces 2, 62 h at 37° C.): 0%
Hb concentration [9]: 281 µg/L
Recovery ratio with respect to Hb after 0 days [9]: 100%
Hb concentration [10]: 95 µg/L
Recovery ratio with respect to Hb after 0 days [10]: 34%
Hb concentration [11]: 5 µg/L
Recovery ratio with respect to Hb after 0 days [11]: 2%
Hb concentration [12]: 0 µg/L
Recovery ratio with respect to Hb after 0 days [12]: 0%
Hb concentration (Feces 3, 0 h at 37° C.): 281 µg/L
Recovery ratio with respect to Hb after 0 days (Feces 3, 0 h at 37° C.): 100%
Hb concentration (Feces 3, 16 h at 37° C.): 95 µg/L
Recovery ratio with respect to Hb after 0 days (Feces 3, 16 h at 37° C.): 34%
Hb concentration (Feces 3, 38 h at 37° C.): 5 µg/L
Recovery ratio with respect to Hb after 0 days (Feces 3, 38 h at 37° C.): 2%
Hb concentration (Feces 3, 62 h at 37° C.): 0 µg/L
Recovery ratio with respect to Hb after 0 days (Feces 3, 62 h at 37° C.): 0%
Hb concentration [13]: 299 µg/L
Recovery ratio with respect to Hb after 0 days [13]: 100%
Hb concentration [14]: 279 µg/L
Recovery ratio with respect to Hb after 0 days [14]: 94%
Hb concentration [15]: 264 µg/L
Recovery ratio with respect to Hb after 0 days [15]: 88%
Hb concentration [16]: 266 µg/L
Recovery ratio with respect to Hb after 0 days [16]: 89%
Hb concentration (No feces, 0 h at 37° C.): 299 µg/L
Recovery ratio with respect to Hb after 0 days (No feces, 0 h at 37° C.): 100%
Hb concentration (No feces, 16 h at 37° C.): 279 µg/L
Recovery ratio with respect to Hb after 0 days (No feces, 16 h at 37° C.): 94%
Hb concentration (No feces, 38 h at 37° C.): 264 µg/L
Recovery ratio with respect to Hb after 0 days (No feces, 38 h at 37° C.): 88%
Hb concentration (No feces, 62 h at 37° C.): 266 µg/L
Recovery ratio with respect to Hb after 0 days (No feces, 62 h at 37° C.): 89%

OB(O)c1cccc(O)c1 [3H-PBA, 3-hydroxyphenylboronic acid]
Hb concentration [1]: 298 µg/L
Recovery ratio with respect to Hb after 0 days [1]: 100%
Hb concentration [2]: 171 µg/L
Recovery ratio with respect to Hb after 0 days [2]: 57%
Hb concentration [3]: 79 µg/L
Recovery ratio with respect to Hb after 0 days [3]: 26%
Hb concentration [4]: 25 µg/L
Recovery ratio with respect to Hb after 0 days [4]: 8%
Hb concentration (Feces 1, 0 h at 37° C.): 298 µg/L
Recovery ratio with respect to Hb after 0 days (Feces 1, 0 h at 37° C.): 100%
Hb concentration (Feces 1, 16 h at 37° C.): 171 µg/L
Recovery ratio with respect to Hb after 0 days (Feces 1, 16 h at 37° C.): 57%
Hb concentration (Feces 1, 38 h at 37° C.): 79 µg/L
Recovery ratio with respect to Hb after 0 days (Feces 1, 38 h at 37° C.): 26%
Hb concentration (Feces 1, 62 h at 37° C.): 25 µg/L
Recovery ratio with respect to Hb after 0 days (Feces 1, 62 h at 37° C.): 8%
Hb concentration [5]: 295 µg/L
Recovery ratio with respect to Hb after 0 days [5]: 100%
Hb concentration [6]: 95 µg/L
Recovery ratio with respect to Hb after 0 days [6]: 32%
Hb concentration [7]: 11 µg/L
Recovery ratio with respect to Hb after 0 days [7]: 4%
Hb concentration [8]: 0 µg/L
Recovery ratio with respect to Hb after 0 days [8]: 0%
Hb concentration (Feces 2, 0 h at 37° C.): 295 µg/L
Recovery ratio with respect to Hb after 0 days (Feces 2, 0 h at 37° C.): 100%
Hb concentration (Feces 2, 16 h at 37° C.): 95 µg/L
Recovery ratio with respect to Hb after 0 days (Feces 2, 16 h at 37° C.): 32%
Hb concentration (Feces 2, 38 h at 37° C.): 11 µg/L
Recovery ratio with respect to Hb after 0 days (Feces 2, 38 h at 37° C.): 4%
Hb concentration (Feces 2, 62 h at 37° C.): 0 µg/L
Recovery ratio with respect to Hb after 0 days (Feces 2, 62 h at 37° C.): 0%
Hb concentration [9]: 295 µg/L
Recovery ratio with respect to Hb after 0 days [9]: 100%
Hb concentration [10]: 106 µg/L
Recovery ratio with respect to Hb after 0 days [10]: 36%
Hb concentration [11]: 9 µg/L
Recovery ratio with respect to Hb after 0 days [11]: 3%
Hb concentration [12]: 0 µg/L
Recovery ratio with respect to Hb after 0 days [12]: 0%
Hb concentration (Feces 3, 0 h at 37° C.): 295 µg/L
Recovery ratio with respect to Hb after 0 days (Feces 3, 0 h at 37° C.): 100%
Hb concentration (Feces 3, 16 h at 37° C.): 106 µg/L
Recovery ratio with respect to Hb after 0 days (Feces 3, 16 h at 37° C.): 36%
Hb concentration (Feces 3, 38 h at 37° C.): 9 µg/L
Recovery ratio with respect to Hb after 0 days (Feces 3, 38 h at 37° C.): 3%
Hb concentration (Feces 3, 62 h at 37° C.): 0 µg/L
Recovery ratio with respect to Hb after 0 days (Feces 3, 62 h at 37° C.): 0%
Hb concentration [13]: 306 µg/L
Recovery ratio with respect to Hb after 0 days [13]: 100%
Hb concentration [14]: 282 µg/L
Recovery ratio with respect to Hb after 0 days [14]: 92%
Hb concentration [15]: 263 µg/L
Recovery ratio with respect to Hb after 0 days [15]: 86%
Hb concentration [16]: 264 µg/L
Recovery ratio with respect to Hb after 0 days [16]: 86%
Hb concentration (No feces, 0 h at 37° C.): 306 µg/L
Recovery ratio with respect to Hb after 0 days (No feces, 0 h at 37° C.): 100%
Hb concentration (No feces, 16 h at 37° C.): 282 µg/L
Recovery ratio with respect to Hb after 0 days (No feces, 16 h at 37° C.): 92%
Hb concentration (No feces, 38 h at 37° C.): 263 µg/L
Recovery ratio with respect to Hb after 0 days (No feces, 38 h at 37° C.): 86%
Hb concentration (No feces, 62 h at 37° C.): 264 µg/L
Recovery ratio with respect to Hb after 0 days (No feces, 62 h at 37° C.): 86%
